Assay results published in patent publication US6479466B1, “Compositions for treating viral infections, and methods therefor” (University of Maryland, priority 1999, dated 2002).

Legend:
HTLV-IIIB = test: p24 antigen in infected resting T-lymphocytes exposed to drugs for 6 days before PHA activation; type: cell-based, HIV-1
Experimental: The effect of RV and nucleoside analogues in infected resting T-lymphocytes was evaluated in the present example. Purified resting cells were used. Absence of activated lymphocytes in the preparation was determined by incubation of the cells in the presence of a monoclonal antibody directed against the low affinity IL-2 receptor CD25 (Pharmingen, San Diego, Calif.), and subsequent analysis by flow cytometry. […] Cells were infected with HTLV-IIIB at a multiplicity of infection of 10^4 TCID50/10^6 cells for 3 hours. A high multiplicity of infection (m.o.i.) was used because of a reported short half life of HIV-1 unintegrated DNA in infected resting lymphocytes. Infected cells were washed 3 times with PBS to remove virus excess and resuspended in 10% FBS RPMI medium supplemented with drugs. To ensure that any antiviral activity exerted by the drugs occurred during the resting state, drugs were removed six days after infection by washing with PBS 3 times, and cells were activated by culturing in the presence of PHA for 2 days. Cells were then cultured in IL-2 medium without drugs, and supernatants were monitored for the presence of p24 antigen. Cultures were maintained for 20 days.
Purified resting T-lymphocytes from a seronegative donor were infected with HTLV-IIIB at the high multiplicity of infection and cultured in the presence of 5 or 10 μM RV plus ddI (0, 0.25, 0.5 μM), ddC (0, 0.1 μM) or AZT (0, 4 μM) for 6 days. Concentrations used for ddC and AZT correspond to the highest, nontoxic concentration attainable in plasma of treated individuals. […] On day 6 after infection, drugs were washed away and cells were activated with PHA. The extent of viral replication was evaluated on day 6 (prior to PHA activation) and days 14 and 20 after infection. On day 6 very low amounts of p24 antigen could be detected under every condition tested, likely representing residual virus from the infecting inoculum. […] No toxicity was found by the MTT assay in uninfected culture controls treated with 5 μM RV and 0.5 μM ddI for 20 days under the same conditions.

PHA-stimulated PBMCs = test: MTT cell proliferation assay in PHA-stimulated PBMCs; type: cell-based, human
Experimental: The effect of RV and […] on PBMC proliferation at the concentrations shown to enhance the anti-HIV effect of ddI were examined. Cellular proliferation in culture in the presence or absence of drugs was measured by commercial MTT assay, according to the manufacturer's instructions (Boehringer Mannheim). Cell viability was determined by trypan blue staining.
Proliferation was measured on PHA-stimulated PBMCs cultured in the presence of IL-2, 2 μM ddI, and RV or HU. The MTT assay was performed on days 2 and 5 (FIG. 8), and days 2 and 7 (FIG. 20) after the addition of the drugs. […] On day 5, RV at 10 μM inhibited proliferation by 30%, whereas HU inhibited proliferation by 40 to 50%, depending on the donor.
Proliferating PBMCs were cultured in the presence of RV or HU for 5 days. On day 2 and 5 an MTT assay and a ^3H-thymidine incorporation assay were performed. The MTT is a […] assay that measures cellular metabolic activity and directly correlates to the number of cells in the culture. The ^3H-thymidine incorporation assay relies on the incorporation of the radioactive nucleoside ^3H-thymidine into newly synthesized DNA. […] These differences between the effects of RV and HU were even more striking in the MTT and ^3H-thymidine incorporation assays conducted on day 5 (FIG. 12 and FIG. 13, respectively).

PHA-activated PBMCs = test: 3H-thymidine incorporation (DNA synthesis) assay in proliferating PBMCs; type: cell-based, human; conditions: RV 10 μM; day 2
Experimental: For example, a thymidine incorporation assay using PBMC's may be carried out as follows. PBMC's are suspended, then 0.1 ml (100,000) of cells are added to each designated well of a 96-well plate. The plates are placed into a 37° C., 5% CO2, 95% humid incubator for the predetermined incubation periods—normally 2 and 5 days. At the end of the incubation period, and at a standard time prior to harvesting the plate (6-18 hours), 1.0-1.5 μCi (20 μl of 50-75 mCi/ml in complete medium) of [^3H]-labeled methyl thymidine is added to each well of the assay. The plates are then incubated for the remaining 6-18 hours. At the end of the [^3H]-thymidine pulse, the plates are harvested onto filter paper using a semi-automated multi-well harvester. The filter paper containing bound DNA may be dried using either ethanol or by moderate microwave heating. The filter paper samples are counted in a scintillation counter using standard procedures.

[1] = system: clinical isolates of HIV-1 (EJC-1 to EJC-4); test: p24 antigen production in activated PBMCs infected with clinical isolates; type: cell-based
Experimental: For infection studies involving PBMCs, cells were stimulated with 2.5 or 10 μg/ml phytohemagglutinin (PHA; Boehringer Mannheim, Indianapolis, Ind.) for 3 days. Stimulated PBMCs were infected by incubation with virus at a multiplicity of infection of 1000 TCID50/10^6 PBMC for 2 hours. PBMCs were then washed three times with PBS and cultured in 5% CO2 at 37° C., in RPMI/10% FBS supplemented with 10 units/ml IL-2 (Boehringer Mannheim) and drugs as appropriate. PBMCs were seeded in 96-well flat-bottom plates at a density of 2×10^5 PBMCs/200 μl. Following 3 days of culture half of the medium was replaced with fresh medium containing IL-2 and drugs. After 7 days of culture, HIV-1 p24 antigen production in the culture supernatant was assayed by ELISA (Coulter, Hialeah, Fla.). The concentration of nucleoside analog, alone and in combination with resveratrol, that reduced the p24 antigen value of the untreated control by 90% (IC90) was calculated by using nonparametric regression analysis. The analysis used the median-effect equation, Fa=1/[1+(Dm/D)]^m, where D is the dose, Fa is the fraction affected, and Dm is the dose required to produce the median effect.
The increase of ddI-antiviral activity by RV was next evaluated in a panel of clinical isolates of HIV-1. […]

| SMILES | virus production on days 14 and 20 following PHA activation (HTLV-IIIB; RV alone (5 or 10 μM)) | impact on cell proliferation (PHA-stimulated PBMCs; 5 μM RV, with IL-2 and 2 μM ddI) | OD values in the MTT assay (PHA-stimulated PBMCs; 10 μM RV, day 7, with IL-2 and 2 μM ddI) | MTT values (PHA-stimulated PBMCs; RV 10 μM, day 2, no ddI) | inhibition of proliferation (PHA-stimulated PBMCs; RV 10 μM, day 2, with IL-2 and 2 μM ddI) | inhibition of proliferation (PHA-stimulated PBMCs; RV 10 μM, day 5, with IL-2 and 2 μM ddI) [%] | 3H-thymidine incorporation (DNA synthesis) (PHA-activated PBMCs) | enhancement of antiviral activity of ddI ([1]; 1 μM ddI plus 5 μM RV, depending on the clinical isolate) | enhancement of ddI activity ([1]; 1 μM ddI plus 10 μM RV) | virus production (HTLV-IIIB; ddI 1 μM, previous studies under these conditions) | viral replication after PHA activation (HTLV-IIIB; ddI by itself (0.25, 0.5 μM)) |
| --- | --- | --- | --- | --- | --- | --- | --- | --- | --- | --- | --- |
| Oc1ccc(/C=C/c2cc(O)cc(O)c2)cc1 [RV, trans-3, 4′, 5-trihydroxystilbene] | considerable virus production | Minimal impact on cell proliferation | higher than those obtained with 100 μM HU | slightly lower than the untreated control | inhibited proliferation slightly | 30 | higher amounts of ^3H-thymidine incorporation than the untreated control | – | – | – | – |
| OC[C@@H]1CC[C@H](n2cnc3c(O)ncnc32)O1 [ddI, 2′,3′-dideoxyinosine] | – | – | – | – | – | – | – | 18-185 fold | 88-1200 fold | completely suppress virus production | did not suppress viral replication |
